Assay [1] concerns Magnetospirillum magneticum. The assay can be described thus: Magnetic moment of suspensions of magnetotactic bacteria (SQUID, 500 Oe or 1000 Oe) on D7, D8, D9. The format is cell-based. The method, then: The magnetic moment of various suspensions of magnetotactic bacteria deposited on blotting paper, under the application of a magnetic field of 500 Oe or of 1000 Oe, was also measured. The magnetic moment was measured for 10 ml of suspension of magnetotactic bacteria harvested at various days of growth, centrifuged, and then resuspended in 100 μl of distilled water. These 100 μl containing the magnetotactic bacteria are then redeposited on nonmagnetic absorbent paper which itself is inserted into a capsule that is placed in the magnetometer in order to carry out the magnetic measurements. […]
Cultures of Magnetospirillum magneticum were prepared as described in example 1. […] The cultures in suspension were placed at ambient temperature (approximately 25° C.) and the growth of the bacteria over time was monitored by measuring O.D. at the wavelength of 565 nanometers.
The bacteria were cultured for 12 days in a tube and the absorbance over the whole of the spectrum ranging from 400 to 700 nanometers was measured, respectively, (i) on the second day (D2) after inoculation, (ii) on the third day (D3) after inoculation, (iii) on the fourth day (D4) after inoculation, (iv) on the seventh day (D7) after inoculation, (v) on the eighth day (D8) after inoculation and (vi) on the ninth day (D9) after inoculation. […]

Assay [2] deals with Magnetospirillum magneticum. The assay can be described thus: Growth over time of magnetotactic bacteria in 10 ml tubes with chelating agent (absorbance, O.D. at 565 nm, D2-D9). The class given is cell-based. Here is the method: Cultures of Magnetospirillum magneticum were prepared as described in example 1. The bacteria were cultured in 10 milliliter tubes. A volume of 100 microliters of culture medium was inoculated, at time “D0” (Day 0), with 0.1×10^6 bacterial cells. The cultures in suspension were placed at ambient temperature (approximately 25° C.) and the growth of the bacteria over time was monitored by measuring O.D. at the wavelength of 565 nanometers.
The following series of culture samples were prepared: • samples of control culture, comprising the bacterial cells in the culture medium free of chelating agent; • a series of culture samples containing the chelating agent rhodamine B, at increasing concentrations of 0.4 μM, 4 μM, 40 μm and 400 μM; • a series of culture samples containing the chelating agent ascorbic acid, at increasing concentrations of 0.4 μM, 4 μM, 40 μM and 400 μM; • a series of culture samples containing the chelating agent erythrosine, at increasing concentrations of 0.4 μM, 40 μM and 400 μM; • a series of culture samples containing the chelating agent folic acid, at increasing concentrations of 0.4 μM, 4 μM, 40 μM and 400 μM;
The bacteria were cultured for 12 days in a tube and the absorbance over the whole of the spectrum ranging from 400 to 700 nanometers was measured, respectively, (i) on the second day (D2) after inoculation, (ii) on the third day (D3) after inoculation, (iii) on the fourth day (D4) after inoculation, (iv) on the seventh day (D7) after inoculation, (v) on the eighth day (D8) after inoculation and (vi) on the ninth day (D9) after inoculation. The magnetic moments of various suspensions of magnetotactic bacteria deposited on blotting paper were measured on days D7, D8 and D9.

The values that follow come from patent US9359589B2, “Use of at least one chelating agent introduced into the culture medium of magnetotactic bacteria in order to stimulate the growth thereof” (UNIVERSITE PIERRE ET MARIE CURIE (PARIS 6), priority 2011, dated 2016).

On to `O=C1O[C@H]([C@@H](O)CO)C(O)=C1O` [ascorbic acid], for which the “concentration range of stimulated magnetosome production compared with rhodamine B” value in assay [1] was “wider concentration range”. Besides, the “effect on bacterial growth compared with rhodamine B” value in assay [2] is recorded as “similar”. Also, the “effect on cell growth at high concentration” value in assay [2] (400 μM) was “rather unfavorable”. In assay [2] (0.4-400 μM, D2 to D9, 10 ml tubes), the “effect on the growth of the magnetotactic bacteria (absorbance compared with cultures without the agent)” value was “stimulates the growth”. Moreover, in assay [2] (after 4 days of culture), the “concentration giving the most pronounced effect on growth” value was 0.4 µM. The “growth curves (fitted absorption, first 7 days) relative to bacteria cultured in the absence of the agent” value in assay [2] (all concentrations except 400 μM) is listed as “above”. The “period of culture during which the effects are greatest” value in assay [2] (exponential growth phase) is reported as “first four days”.
